Consider two compounds from patent US8680087B2, “Macrocyclic amides, pharmaceutical compositions, preparation methods and uses thereof” (Yuxi Winhey Bio-Tech Co., Ltd., priority 2009, dated 2014).

What all share (type): cell-based
Test [1] relates to Enterococcus faecalis. Nature of the test: Antibacterial activity test, standard dilution method (MIC). To be noted: 24 hr and 48 hr, trypticase soy broth, 35° C. The method, then:
(§1) The following antibacterial activity test of WH-21091 was conducted to illustrate the antibacterial activity of WH-21091. Standard dilution method was adopted, and the measurement was conducted under 35° C. After culturing for 24 hours, the minimum inhibition concentrations (MICs) of WH-21091 were obtained.

In test [2] the test system is Escherichia coli. The description is as above. The settings on record: 24 hr and 48 hr, trypticase soy broth, 35° C. The method, then: as §1
For test [3], the system named is Pseudomonas aeruginosa. The description is as above. The settings on record: 24 hr and 48 hr, trypticase soy broth, 35° C. The procedure:
as §1

The subject of test [4] is S. aureus MSRA (clinical isolates of methicilllin-resistant strains). Described as above. To be noted: Staphylococcus aureus. The method, then: as §1
Test [5] concerns Staphylococcus epidermidis. Described as above. The settings on record: 24 hr and 48 hr, trypticase soy broth, 35° C. The method, then:
as §1

Test [6] deals with Streptococcus pyogenes. Described as above. The settings on record: 24 hr and 48 hr, trypticase soy broth, 35° C. The method, then:
as §1

The test system of test [7] is breast cancer MCF-7 cells. The test is described as follows: In vitro antitumor activity test (method of Skehan et al.). The settings on record: Homo sapiens, MCF7; MCF-7 breast cancer cells. The procedure:
(§2) Following the method described by Skehan et al. (1990), in vitro antitumor activity tests of WH-21091 on human lung cancer H460, breast cancer MCF-7 and cervix cancer Hela cells were conducted.

The subject of test [8] is cervix cancer Hela cells. Described as above. The settings on record: Homo sapiens. The procedure: as §2
Test [9] relates to human lung cancer H460 cells. The test is described as above. To be noted: NCI-H460. The procedure: as §2

Converted amounts (≈) assume the structure as drawn. Like-named read-outs stand apart in the source and are kept apart here.

Consider `CC[C@H]1OC(=O)[C@H](C)[C@@H](O[C@H]2C[C@@](C)(OC)[C@@H](O)[C@H](C)O2)[C@H](C)[C@@H](O[C@@H]2O[C@H](C)C[C@H](N(C)C)[C@H]2O)[C@](C)(O)C[C@@H](C)C(=O)[C@H](C)[C@@H](O)[C@]1(C)O` [erythromycin, reference compound], for which the MIC in [1] was more than 32 µg/mL; in [2] it was 1 µg/mL (≈ 1.36 µM); in test [3] it was more than 32 µg/mL; in [4] it was more than 32 µg/mL; in test [5], 0.25 µg/mL (≈ 0.341 µM); in test [6], 0.03 µg/mL (≈ 0.0409 µM).
As to `CC1CC(C)CC(C(O)Cc2cccc(O)c2C(=O)O)NC(=O)C(O)C(O)C(O)C1` (stereo not drawn) [WH-21091], the MIC was 32 µg/mL (≈ 75.2 µM) in test [1]; 4 µg/mL (≈ 9.4 µM) in [2]; more than 32 µg/mL in [3]; 4 µg/mL (≈ 9.4 µM) in test [4] (S. aureus MSRA, clinical isolates of methicilllin-resistant strains, 24 hr and 48 hr, trypticase soy broth, 35° C., read-out: MIC); 8 µg/mL (≈ 18.8 µM) in test [5]; 4 µg/mL (≈ 9.4 µM) in test [6]. The IC50 in [7] was 0.81 µg/mL (≈ 1.9 µM); in [8] it was 0.24 µg/mL (≈ 0.564 µM); in [9], 0.1 µg/mL (≈ 0.235 µM).
